In US6890736B1, “Methods for producing proteins in cultured cells” (Immunex Corporation, priority 2002, dated 2005):

Tests used:
Format in all cases: cell-based, Chinese hamster
[1] = test system: cell line 25H9 (CHO cells); assay: Example 2: cell number and viability; conditions: 31° C., 0.5 mM butyrate
Experimental: (§1) About 2×10^6 cells of cell line 25H9 were inoculated into 30 milliliters of serum-free medium and incubated at the temperatures indicated in Table 1 in vented shake flasks. At the times indicated in Table 1, samples were taken from each flask to determine IL-1R-II titer, cell number, and cell viability. IL-1R-II protein titer was determined by ELISA assay. Cell number was determined by counting cells in a hemocytometer. Cell viability was determined by trypan blue staining and counting stained cells in a hemocytometer. Cumulative viable cell density (CVCD) is the area under the curve of a plot of the viable cell density versus time (in units of cells/ml/day). Productivity (pg of IL-1R-II/cell/day) was determined by dividing the protein titer on a particular day by the CVCD on the same day. Cells were fed with amino acids on days 2 and 5, and dextrose was added periodically in order to maintain levels above 2.0 g/L. All samples were done in duplicate, and the data shown is an average value.
(§2) To determine an optimum temperature and decitabine concentration, three temperatures (30° C., 31° C., and 32° C.) and three decitabine concentrations (10 μM, 15 μM, and 20 μM) were tested. A 31° C. culture containing 0.5 mM sodium butyrate was grown as a control. […] See e.g. International Application Nos. WO 89/06686 and WO 87/05626. The experiment was performed as in Example 1 except that the inducer concentrations, temperatures, and days at which data was collected are as indicated in Table 2 and FIG. 1.

[2] = Example 2: cell number and viability; conditions: Chinese hamster, 31° C., 0.5 mM butyrate
Experimental: as §1, §2

[3] = test system: cell line 25H9 (CHO cells that produce IL-1R-II protein); assay: Example 2: optimization of temperature and decitabine concentration, IL-1R-II production; conditions: 31° C., 0.5 mM butyrate
Experimental: as §1, §2

[4] = test system: cell line 25H9 (CHO cells); assay: Example 3: cell number (Guava PCA Cytometer); conditions: 31° C.
Experimental: as §1
(§3) The following experiment compares the effects of 5-bromo-2′-deoxycytidine 5′-monophosphate and 5-aza-2′-deoxycytidine on induction of protein production. The experiment was done as described in Example 1 with the following exceptions. All cultures were incubated at 31° C., and cell number and viability were determined using a Guava PCA Cytometer (available from Guava Technologies, Hayward, Calif., USA). Samples were done in triplicate.

[5] = test system: cell line 25H9 (CHO cells that produce IL-1R-II protein); assay: Example 3: induction with 5-bromo-2′-deoxycytidine 5′-monophosphate, IL-1R-II production
Experimental: as §1, §3

Q: With CCCC(=O)[O-].[Na+] [butyrate, sodium butyrate] as the compound, how does the “Cumulative Viable Cell Density” value ([1]; day 0) read?
A: 0 mL⁻¹ day⁻¹

Q: And the “Viable Cell Density” value ([1]; day 0)?
A: 2e+06 mL⁻¹

Q: And the “Cumulative Viable Cell Density” value ([1]; day 3)?
A: 8.9e+06 mL⁻¹ day⁻¹

Q: What about the “Viable Cell Density” value ([1]; day 3) of the same compound?
A: 4e+06 mL⁻¹

Q: What about the “Cumulative Viable Cell Density” value ([1]; day 6) of the same compound?
A: 2.09e+07 mL⁻¹ day⁻¹

Q: What about the “Viable Cell Density” value ([1]; day 6) of the same compound?
A: 4e+06 mL⁻¹

Q: And the “Cumulative Viable Cell Density” value ([1]; day 8)?
A: 2.89e+07 mL⁻¹ day⁻¹

Q: And the “Viable Cell Density” value ([1]; day 8)?
A: 3.9e+06 mL⁻¹

Q: And the viability at 0 day, 0.5 mM ([2]; day 0)?
A: 94.2%

Q: What about the viability at 3 day, 0.5 mM ([2]; day 3) of the same compound?
A: 91.7%

Q: And the viability at 6 day, 0.5 mM ([2]; day 6)?
A: 88.5%

Q: What about the viability at 8 day, 0.5 mM ([2]; day 8) of the same compound?
A: 71.1%

Q: And the “IL1R-II Titer” value ([3]; day 0)?
A: 0.0 µg/mL

Q: And the “IL1R-II Titer” value ([3]; day 3)?
A: 214.0 µg/mL

Q: And the Productivity ([3]; day 3)?
A: 23.9 pg IL-1R-II/cell/day

Q: What about the “IL1R-II Titer” value ([3]; day 6) of the same compound?
A: 473.0 µg/mL

Q: What about the Productivity ([3]; day 6) of the same compound?
A: 22.6 pg IL-1R-II/cell/day

Q: And the “IL1R-II Titer” value ([3]; day 8)?
A: 862.0 µg/mL

Q: What about the Productivity ([3]; day 8) of the same compound?
A: 29.8 pg IL-1R-II/cell/day

Q: Which results are given for Nc1nc(=O)n([C@H]2C[C@H](O)[C@@H](COP(=O)(O)O)O2)cc1Br [5-bromo-2′-deoxycytidine 5′-monophosphate]?
A: Cumulative Viable Cell Density ([4]; 5 μM, day 0): 0.0 10^6 cells/ml/day; Viable Cell Density ([4]; 5 μM, day 0): 2.4 cells/ml × 10^6; Cumulative Viable Cell Density ([4]; 5 μM, day 2): 5.5 10^6 cells/ml/day; Viable Cell Density ([4]; 5 μM, day 2): 3.1 cells/ml × 10^6; Cumulative Viable Cell Density ([4]; 5 μM, day 5): 14.3 10^6 cells/ml/day; Viable Cell Density ([4]; 5 μM, day 5): 2.8 cells/ml × 10^6; Cumulative Viable Cell Density ([4]; 5 μM, day 7): 19.4 10^6 cells/ml/day; Viable Cell Density ([4]; 5 μM, day 7): 2.3 cells/ml × 10^6; Cumulative Viable Cell Density ([4]; 5 μM, day 9): 23.5 10^6 cells/ml/day; Viable Cell Density ([4]; 5 μM, day 9): 1.8 cells/ml × 10^6; Cumulative Viable Cell Density ([4]; 10 μM, day 0): 0.0 10^6 cells/ml/day; Viable Cell Density ([4]; 10 μM, day 0): 2.4 cells/ml × 10^6; Cumulative Viable Cell Density ([4]; 10 μM, day 2): 5.6 10^6 cells/ml/day; Viable Cell Density ([4]; 10 μM, day 2): 3.3 cells/ml × 10^6; Cumulative Viable Cell Density ([4]; 10 μM, day 5): 15.0 10^6 cells/ml/day; Viable Cell Density ([4]; 10 μM, day 5): 3.0 cells/ml × 10^6; Cumulative Viable Cell Density ([4]; 10 μM, day 7): 20.9 10^6 cells/ml/day; Viable Cell Density ([4]; 10 μM, day 7): 2.8 cells/ml × 10^6; Cumulative Viable Cell Density ([4]; 10 μM, day 9): 26.0 10^6 cells/ml/day; Viable Cell Density ([4]; 10 μM, day 9): 2.3 cells/ml × 10^6; Cumulative Viable Cell Density ([4]; 15 μM, day 0): 0.0 10^6 cells/ml/day; Viable Cell Density ([4]; 15 μM, day 0): 2.4 cells/ml × 10^6; Cumulative Viable Cell Density ([4]; 15 μM, day 2): 5.4 10^6 cells/ml/day; Viable Cell Density ([4]; 15 μM, day 2): 3.0 cells/ml × 10^6; Cumulative Viable Cell Density ([4]; 15 μM, day 5): 13.8 10^6 cells/ml/day; Viable Cell Density ([4]; 15 μM, day 5): 2.6 cells/ml × 10^6; Cumulative Viable Cell Density ([4]; 15 μM, day 7): 18.6 10^6 cells/ml/day; Viable Cell Density ([4]; 15 μM, day 7): 2.2 cells/ml × 10^6; Cumulative Viable Cell Density ([4]; 15 μM, day 9): 22.4 10^6 cells/ml/day; Viable Cell Density ([4]; 15 μM, day 9): 1.6 cells/ml × 10^6; viable cell density versus 10 μM 5-aza-2′-deoxycytidine ([4]; all three concentrations tested): higher; effectiveness at inducing protein production relative to 5-aza-2′-deoxycytidine ([5]; 31° C.): about twice as effective; inducing IL-1R-II production, 10 μM versus 5 μM or 15 μM ([5]; 31° C.): more effective than either 5 μM or 15 μM; Titer of IL-1R-II ([5]; 31° C., 5 μM, day 0): 0.0 mg/L; Productivity ([5]; 31° C., 5 μM, day 2): 12.4 pg of IL-1RII/cell/day; Titer of IL-1R-II ([5]; 31° C., 5 μM, day 2): 67.6 mg/L; Productivity ([5]; 31° C., 5 μM, day 5): 13.8 pg of IL-1RII/cell/day; Titer of IL-1R-II ([5]; 31° C., 5 μM, day 5): 197.4 mg/L; Productivity ([5]; 31° C., 5 μM, day 7): 14.9 pg of IL-1RII/cell/day; Titer of IL-1R-II ([5]; 31° C., 5 μM, day 7): 289.1 mg/L; Productivity ([5]; 31° C., 5 μM, day 9): 15.2 pg of IL-1RII/cell/day; Titer of IL-1R-II ([5]; 31° C., 5 μM, day 9): 357.6 mg/L; Titer of IL-1R-II ([5]; 31° C., 10 μM, day 0): 0.0 mg/L; Productivity ([5]; 31° C., 10 μM, day 2): 13.4 pg of IL-1RII/cell/day; Titer of IL-1R-II ([5]; 31° C., 10 μM, day 2): 75.0 mg/L; Productivity ([5]; 31° C., 10 μM, day 5): 17.6 pg of IL-1RII/cell/day; Titer of IL-1R-II ([5]; 31° C., 10 μM, day 5): 264.0 mg/L; Productivity ([5]; 31° C., 10 μM, day 7): 19.2 pg of IL-1RII/cell/day; Titer of IL-1R-II ([5]; 31° C., 10 μM, day 7): 401.4 mg/L; Productivity ([5]; 31° C., 10 μM, day 9): 18.6 pg of IL-1RII/cell/day; Titer of IL-1R-II ([5]; 31° C., 10 μM, day 9): 484.0 mg/L; Titer of IL-1R-II ([5]; 31° C., 15 μM, day 0): 0.0 mg/L; Productivity ([5]; 31° C., 15 μM, day 2): 11.4 pg of IL-1RII/cell/day; Titer of IL-1R-II ([5]; 31° C., 15 μM, day 2): 61.4 mg/L; Productivity ([5]; 31° C., 15 μM, day 5): 12.1 pg of IL-1RII/cell/day; Titer of IL-1R-II ([5]; 31° C., 15 μM, day 5): 167.3 mg/L; Productivity ([5]; 31° C., 15 μM, day 7): 13.4 pg of IL-1RII/cell/day; Titer of IL-1R-II ([5]; 31° C., 15 μM, day 7): 249.1 mg/L; Productivity ([5]; 31° C., 15 μM, day 9): 14.2 pg of IL-1RII/cell/day; Titer of IL-1R-II ([5]; 31° C., 15 μM, day 9): 318.3 mg/L; inducing IL-1R-II production, all three concentrations versus 10 μM 5-aza-2′-deoxycytidine ([5]; 31° C., 5, 10, 15 μM): more effective than 10 μM 5-aza-2′-deoxycytidine
